Assay results from patent publication US20150111896A1, “HEMATOPOIETIC PROTECTION AGAINST CHEMOTHERAPEUTIC COMPOUNDS USING SELECTIVE CYCLIN-DEPENDENT KINASE 4/6 INHIBITORS” (The University of North Carolina at Chapel Hill, priority 2008, published 2015).
Entries after “also recorded” stand apart in the source; their conditions may differ.

How the values were obtained:
[1] = tested on: hematopoietic stem and progenitor cells (HSPC); assay: In vivo pharmacodynamic assay (BrdU incorporation, Ki67) in bone marrow; parameters: species or system mice; details: two doses 300 mg/kg oral gavage, 2 hours prior to and at BrdU injection; relative to formulation alone; 300 mg/kg
Protocol: PD0332991: For HSPC proliferation experiments, mice received daily oral gavage with PD0332991 150 mg/kg for 2 days with 1 mg BrdU intraperitoneal injection (i.p.) every 6 hours for 24 hours prior to sacrifice.
2BrIC: For HSPC proliferation experiments, mice were treated with two doses of 2-bromo-12,13-dihydro-5H-indolo[2,3-a]pyrrolo[3,4-c]carbazole-5,7(6H)-dione (2BrIC) 300 mg/kg oral gavage or vehicle control. 2BrIC was solubilized for oral gavage using formulation #6 from the Hot Rod formulation kit (Pharmatek, Inc., San Diego, Calif., United States of America). 2BrIC was administered 2 hours prior to BrdU administration and readministered at the time of the BrdU 1 mg i.p. injection. After BrdU+/−2BrIC treatment for the indicated times, the mice were sacrificed and bone marrow harvested for immunophenotyping, and BrdU analysis.
Bone marrow (BM) was harvested from femurs of mice, pooled, and centrifuged to purify bone marrow mononuclear cells (BM-MNCs). Cells were then incubated for 5 minutes in ACK buffer to lyse red blood cells. All antibodies were from BD Pharmingen (San Jose, Calif., United States of America) unless otherwise indicated. Purified BM-MNCs were incubated with mouse lineage mixture biotin conjugated antibody, followed by streptavidin-FITC. Cells were then stained with Sca-1-PE-Cy7 and c-kit-APC-alexa750 antibodies. Cell viability was assessed using LIVE/DEAD Aqua Dead Cell Stain Kit (Invitrogen Corporation, Carlsbad, Calif., United States of America). For BrdU incorporation assay, the cells were fixed, permeablized, and stained with an APC BrdU Flow Kit according to the manufacturer's instruction. In all experiments, PE-Cy7, FITC, APC-alexa750, and the Aqua Dead cell stain isotype controls were included as appropriate. Flow cytometric analysis was performed using a CyAn ADP (Dako, Glostrup, Denmark). For each sample, a minimum of 500,000 cells was analyzed and the data were analyzed using FlowJo software (Tree Star, Ashland, Oreg., United States of America).

[2] = tested on: human RB-null melanoma cells (A2058); assay: Cell proliferation assay (WST-1 or CellTiter-Glo) after chemotherapeutic; details: for protection from chemotherapy-induced cytotoxicity (cell proliferation assays): A2058 (CDK4/6-independent), pretreatment prior to carboplatin, etoposide or doxorubicin; for chemoprotective effects against doxorubicin (cell viability, CellTiter-Glo): 16 hours pretreatment, DOX 370 nM 8 hours, viability after 7 days
Protocol: (§6) In some embodiments, cell viability is assessed by performing a assay using 2-(4-iodophenyl)-3-(4-nitrophenyl)-5-(2,4-disulfophenyl)-2H-tetrazolium monosodium salt (WST-1), such as described further hereinbelow. In the WST-1 assay, WST-1 is cleaved by a mitochondrial reductase present in viable cells to form a colored product (i.e., formazan) that can be detected by measuring absorbance at a particular wavelength (e.g., 420-480 nm). […] The CellTiter-Glo® assay (CTG assay; Promega, Madison, Wis., United States of America) measures cell viability by measuring ATP concentration in cell lysate.
(§7) Cell lines: Telomerized human diploid fibroblast (tHDF) cells (HS68) were cultured in Dulbecco's Modified Eagle Medium (DMEM) +10% fetal bovine serum (FBS) with any additional compounds. The same conditions were used for A2058 and WM2664, human melanoma cell lines with known RB-pathway mutations: A2058 is RB-null, whereas WM2664 lacks INK4a/ARF. Thus, A2058 cells are CDK4/6-independent, while WM2664 cells are CDK4/6-dependent. Cells were cultured in DMEM+10% FBS.
(§8) Cell proliferation assays: Cell proliferation assays were performed by seeding 1×10^3 cells per well in a 96-well tissue culture plate in 100 μL of growth medium. Cells were treated as indicated with compound from Table 1 and doxorubicin, etoposide or carboplatin. Following treatment, cells were allowed to recover for 7 days in normal growth medium. At the end of the recovery period, cell number was quantified using the VVST-1 cell proliferation assay (TaKaRa Bio USA, Madison, Wis., United States of America) or the CellTiter-Glo® assay (CTG; Promega, Madison, Wis., United States of America). Data is presented as absorbance at 450 nm for the WST assays or Relative Light Units (RLU) for the CTG assays.

[3] = tested on: telomerized human diploid fibroblast (tHDF) cells (HS68); assay: as above; details: for protection from chemotherapy-induced cytotoxicity (cell proliferation assays): HS68 (CDK4/6-dependent), pretreatment prior to carboplatin, etoposide or doxorubicin; for chemoprotective effects against doxorubicin (cell viability, CellTiter-Glo) / protection from doxorubicin-induced cytotoxicity (cell viability, WST-1 assay): HS68; for chemoprotective effects against doxorubicin (cell viability, CellTiter-Glo): 16 hours pretreatment, DOX 370 nM 8 hours, viability after 7 days; for protection from doxorubicin-induced cytotoxicity (cell viability, WST-1 assay): absorbance at 450 nm, 7 days recovery
Protocol: as §6, §7, §8

[4] = tested on: human melanoma cells lacking INK4a/ARF (WM2664); assay: Cell cycle analysis (BrdU and propidium iodide, flow cytometry); format: cell-based; details: WM2664 (CDK4/6-dependent), 24 hours treatment
Protocol: (§1) Cells were cultured in DMEM+10% FBS.
(§2) Cell cycle analysis: Cell cycle analysis was performed using BrdU and propidium iodide (both from BD Biosciences Pharmigen, San Jose, Calif., United States of America) following the manufacturer's protocol. Cells were treated for 24 hours with a test compound at a desired dose prior to 15 minutes BrdU pulse, cell harvesting, fixation, staining, and analysis by flow cytometry.
(§3) Histograms of dose-response curves of PD332991 and 2BrIC in HS68, WM2664 and A2058 cells were analyzed using Mod-Fit™ software from Verity Software House (Topsham, Me., United States of America).

[5] = tested on: telomerized human diploid fibroblast (tHDF) cells (HS68); assay: as above; format: cell-based; details: HS68 (CDK4/6-dependent), 24 hours treatment
Protocol: as §1, §2, §3

[6] = tested on: mice exposed to chemotherapeutic agents; assay: Myelosuppression assay: weekly complete blood counts; format: in vivo; details: 150 mg/kg oral gavage, Carbo 100 mg/kg i.p., blood on sixth day
Protocol: PD0332991: In the carboplatin experiments, mice were treated with a single dose of PD0332991 150 mg/kg oral gavage or vehicle control followed by carboplatin 100 mg/kg IP injection. In the doxorubicin experiments, mice were treated with a PD0332991 150 mg/kg by oral gavage or vehicle control one hour before doxorubicin 10 mg/kg by IP injection on day 0 and then repeated on day 7.
2BrIC: Mice were treated with a single dose of carboplatin 100 mg/kg by IP injection and two doses of 2BrIC 150mg/kg oral gavage or vehicle control. Mice were pretreated with 2BrIC two hours prior to carboplatin administration and then readministered a second dose of 2BrIC at the time of the carboplatin injection.
Baseline complete blood count (CBC) analysis were performed on a subset of mice prior to drug administration. Following drug administration (chemotherapy+/−indicated CDK4/6 inhibitor or control), mice were monitored weekly for the presence of myelosuppression by CBC analysis. CBC analysis was performed using BD Microtainer tubes with K2E (K2EDTA), 40 μL of blood was collected by tail vein nick. Blood was analyzed using a HESKA CBC-Diff Veterinary Hematology System. CBC analysis included measurement of white blood cells, lymphocytes, granulocytes, monocytes, hematocrit, red blood cells, hemoglobin, platelets, and other common hematological parameters.

[7] = tested on: human melanoma cells lacking INK4a/ARF (WM2664); assay: Cell proliferation assay (WST-1 or CellTiter-Glo) after chemotherapeutic; details: for protection from chemotherapy-induced cytotoxicity (cell proliferation assays): WM2664 (CDK4/6-dependent), pretreatment prior to carboplatin, etoposide or doxorubicin; for chemoprotective effects against doxorubicin (cell viability, CellTiter-Glo) / protection from doxorubicin-induced cytotoxicity (cell viability, WST-1 assay): WM2664; for chemoprotective effects against doxorubicin (cell viability, CellTiter-Glo): 16 hours pretreatment, DOX 122 nM 8 hours, viability after 7 days; for protection from doxorubicin-induced cytotoxicity (cell viability, WST-1 assay): absorbance at 450 nm, 7 days recovery
Protocol: as §6, §7, §8

[8] = tested on: human melanoma cells lacking INK4a/ARF (WM2664); assay: γH2AX assay (DNA damage, flow cytometry); format: cell-based; details: 16 hours pretreatment
From the text: (§4) Reduction in DNA damage effected by the test compound or maintenance of cell viability effected by the test compound in cells treated with cytotoxic compounds can be assessed in any suitable manner. For example, DNA damage in cell populations can be assessed by performing a gamma-H2AX assay as described further herein below. Mammalian cells respond to agents that introduce DNA double-stranded breaks with the immediate and substantial phosphorylation of histone H2AX. Thus, detection of the phosphorylated H2AX, termed gamma-H2AX (γH2AX), using commercially available antibodies, can serve as a measure of DNA damage in cells.
as §1
(§5) γH2AX assay: For γH2AX assay, cells were treated with a dose response of PD332991 or 2BrIC for 24 hours. Cells were fixed, permeabilized, and stained with anti-γH2AX antibody as per γH2AX Flow Kit (Millipore, Billerica, Mass., United States of America). γH2AX levels were assessed by flow cytometry.

[9] = tested on: telomerized human diploid fibroblast (tHDF) cells (HS68); assay: γH2AX assay (DNA damage, flow cytometry); format: cell-based; details: 16 hours pretreatment, then 8 hours Carbo, Etop or Dox
From the text: as §4, §1, §5

[10] = tested on: human RB-null melanoma cells (A2058); assay: γH2AX assay (DNA damage, flow cytometry); format: cell-based; details: 16 hours pretreatment, then 8 hours Carbo, Etop or Dox
From the text: as §4, §1, §5

[11] = tested on: human RB-null melanoma cells (A2058); assay: Cell cycle analysis (BrdU and propidium iodide, flow cytometry); format: cell-based; details: A2058 (RB-null, CDK4/6-independent), 24 hours treatment
Protocol: as §1, §2, §3

Row | SMILES | incorporation of BrdU into Lin−Kit+Sca1+ cells (MPP) [1] | protection from chemotherapy-induced cytotoxicity (cell proliferation assays) [2] | protection from doxorubicin-induced cytotoxicity (cell viability, WST-1 assay) ([2]; A2058, absorbance at 450 nm, 7 days recovery) | protection from chemotherapy-induced cytotoxicity (cell proliferation assays) [3] | cell cycle effect [4] | cell cycle effect [5] | protection of blood cell counts from carboplatin [6] | protection from chemotherapy-induced cytotoxicity (cell proliferation assays) [7] | protection from doxorubicin-, carboplatin- or etoposide-induced DNA damage (gamma-H2AX) ([8]; then 8 hours Carbo, Etop or Dox) | protection from carboplatin-induced DNA damage (gamma-H2AX positive cells) ([8]; then 8 hours carboplatin) | protection from doxorubicin-induced DNA damage (gamma-H2AX positive cells) ([8]; then 8 hours doxorubicin) | protection from etoposide-induced DNA damage (gamma-H2AX positive cells) ([8]; then 8 hours etoposide) | protection from doxorubicin-, carboplatin- or etoposide-induced DNA damage (gamma-H2AX) [9] | protection from doxorubicin-, carboplatin- or etoposide-induced DNA damage (gamma-H2AX) [10] | chemoprotective effects against doxorubicin (cell viability, CellTiter-Glo) ([2]; A2058) | chemoprotective effects against doxorubicin (cell viability, CellTiter-Glo) [3] | cell cycle effect [11] | chemoprotective effects against doxorubicin (cell viability, CellTiter-Glo) [7] | protection from doxorubicin-induced cytotoxicity (cell viability, WST-1 assay) [3] | protection from doxorubicin-induced cytotoxicity (cell viability, WST-1 assay) [7]
1 | O=C1NC(=O)c2c1c1c3ccccc3[nH]c1c1[nH]c3cc(Br)ccc3c21 [Compound 2BrIC, 2-bromo-12,13-dihydro-5H-indolo[2,3-a]pyrrolo[3,4]-carbazole-5,6-dione] | inhibited; also recorded: clearly reducing proliferation | not | inability | significant protection | strong, clean and reversible G1-arrest | strong, clean and reversible G1-arrest | provides protection of red blood cells and hemoglobin | significant protection | attenuated γH2AX staining | ability | ability | ability | attenuated γH2AX staining; also recorded: ability | inability | – | – | – | – | – | –
2 | CN1CC[C@H](c2c(O)cc(O)c3c(=O)cc(-c4ccccc4Cl)oc23)[C@H](O)C1 [flavopiridol] | – | failed to protect | – | failed to protect | did not induce a clean G1 arrest; also recorded: does not induce G1 arrest | did not induce a clean G1 arrest; also recorded: does not induce G1 arrest | – | failed to protect | – | – | – | – | – | – | absence of chemoprotective effects | absence of chemoprotective effects | did not induce a clean G1 arrest | absence of chemoprotective effects | – | –
3 | CN1CCN(C(=O)c2ccc(Nc3ncc4cnn(C5CCCCC5)c4n3)cc2)CC1 [Compound 11] | – | – | – | failed to protect | did not induce a clean G1 arrest | did not induce a clean G1 arrest | – | failed to protect | – | – | – | – | – | – | – | – | did not induce a clean G1 arrest | – | inability | inability
4 | CN1CCN(c2ccc(Nc3ncc4cnn(C5CCCCC5)c4n3)cc2)CC1 [Compound 8] | – | – | – | failed to protect | did not induce a clean G1 arrest | did not induce a clean G1 arrest | – | failed to protect | – | – | – | – | – | – | – | – | did not induce a clean G1 arrest | – | inability | inability
5 | O=c1c(-c2ccc(O)cc2)coc2cc(O)cc(O)c12 [Genistein] | – | failed to protect | – | failed to protect | did not induce a clean G1 arrest | did not induce a clean G1 arrest | – | failed to protect | – | – | – | – | – | – | absence of chemoprotective effects | absence of chemoprotective effects | did not induce a clean G1 arrest | absence of chemoprotective effects | – | –
6 | CN1CCN(Cc2ccc(Nc3ncc4cnn(C5CCCCC5)c4n3)cc2)CC1 [Compound 9] | – | – | – | failed to protect | did not induce a clean G1 arrest | did not induce a clean G1 arrest | – | failed to protect | – | – | – | – | – | – | – | – | did not induce a clean G1 arrest | – | inability | inability
7 | COc1ccc(F)c(F)c1C(=O)c1cnc(NC2CCN(S(C)(=O)=O)CC2)nc1N [Compound 7] | – | failed to protect | – | failed to protect | did not induce a clean G1 arrest; also recorded: does not induce G1 arrest | did not induce a clean G1 arrest; also recorded: does not induce G1 arrest | – | failed to protect | – | – | – | – | – | – | absence of chemoprotective effects | absence of chemoprotective effects | did not induce a clean G1 arrest | absence of chemoprotective effects | – | –
